In general, IC50 refers to the concentration needed to halve the response being measured.

The assay addresses T1, human SLC6A19 (Homo sapiens, UniProt Q695T7).
T1 construct: expressed in transfected cells
T1 sequence (Q695T7 1-634): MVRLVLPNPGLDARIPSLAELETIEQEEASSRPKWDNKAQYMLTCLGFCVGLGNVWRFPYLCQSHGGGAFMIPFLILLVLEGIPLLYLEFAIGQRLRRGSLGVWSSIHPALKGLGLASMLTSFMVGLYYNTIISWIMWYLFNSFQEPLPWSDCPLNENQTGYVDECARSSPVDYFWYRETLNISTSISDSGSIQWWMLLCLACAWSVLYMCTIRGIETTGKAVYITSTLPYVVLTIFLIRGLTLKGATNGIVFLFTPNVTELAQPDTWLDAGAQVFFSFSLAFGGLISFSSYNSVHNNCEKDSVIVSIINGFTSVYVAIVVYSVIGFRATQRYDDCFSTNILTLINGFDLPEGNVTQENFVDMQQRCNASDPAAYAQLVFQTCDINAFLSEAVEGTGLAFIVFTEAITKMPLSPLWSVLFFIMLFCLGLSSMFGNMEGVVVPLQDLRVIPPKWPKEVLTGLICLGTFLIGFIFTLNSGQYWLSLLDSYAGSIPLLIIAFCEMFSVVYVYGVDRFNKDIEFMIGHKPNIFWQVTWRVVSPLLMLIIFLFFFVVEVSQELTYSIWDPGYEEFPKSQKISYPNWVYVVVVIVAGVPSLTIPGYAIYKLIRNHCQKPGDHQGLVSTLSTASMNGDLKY
T1 sequence (Q9HBJ8 15-222 partner): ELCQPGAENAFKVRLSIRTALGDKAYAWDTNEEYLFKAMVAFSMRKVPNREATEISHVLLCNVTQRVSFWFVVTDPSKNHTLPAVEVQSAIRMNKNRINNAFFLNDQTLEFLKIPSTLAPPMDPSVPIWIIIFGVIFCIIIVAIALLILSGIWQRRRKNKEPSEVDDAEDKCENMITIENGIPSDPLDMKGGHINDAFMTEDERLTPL
Put plainly: Example B2: 13C6,15N-isoleucine uptake, RapidFire mass spectrometry, in CHO cells with doxycycline-inducible expression of human SLC6A19 and TMEM27. Type of assay: cell-based. The following applies: read-out: SLC6A19_RapidFire Uptake Assay IC50. How it is done: Assay ready vials of CHO cells with doxycycline inducible expression of human SLC6A19 and TMEM27 were thawed, plated in T175 flasks containing DMEM/F12 media, 10% FBS, 100 Penicillin-Streptomycin, 1× UltraGlutamate, 1 mM Sodium Pyruvate, Sodium Bicarbonate (7.5 mL of 7.5% solution in 500 mL media final), […] Blasticidin, 150 µg/mL Hygromycin B Gold, and 500 µg/mL G418, and incubated (humidified, 37° C. with […]) for 48 hours. Media was then removed, flasks were washed with 20 mL of DPBS, and 5 mL of TryμLE™ Express was added to each flask to initiate cell dissociation. After 5 minutes, 10 mL of cell culture media was added to each flask and mixed. The cell suspension was collected and centrifuged for 5 minutes at 200×g. The supernatant was removed, and the pellet was resuspended in 10 mL of cell culture media. Resuspended cells were counted using a Vi-Cell. 30 μL/well (20,000 cells/well) of cell suspension was added to Poly-D-Lysine 384-well black/clear plates. Plates were incubated (humidified, 37° C. with 5% CO2) for 24 hours. To induce expression of human SLC6A19 and TMEM27, 10 μL of assay culture media containing 4 μg/mL doxycycline was added to each well. Assay plates were then incubated (humidified, 37° C. with 5% CO2) overnight. After incubation, the media was removed, and wells were washed 3 times with 40 μL of warmed DPBS. […] All compounds were plated in a duplicate 10-point dilution series that consisted of 2-fold dilutions. The plates were incubated (humidified, 37° C. with 5% CO2) with compound for 20 minutes. Afterwards, 20 μL/well of 2 mM 13C6,15N-1-isoleucine was added to each well and plates were incubated again (humidified, 37° C. with 5% CO2) for another 20 minutes. Assay buffer was then removed, and plates were washed. 70 μL/well of stop solution (75% acetonitrile, 25% HPLC grade water, 250 nM 1-leucine-1-13 C (RapidFire standard)) was added to each well. The plates were sealed and then placed in a −20° C. freezer for 20 minutes. The plates were thawed at room temperature for 20 minutes and then centrifuge for 20 minutes at 3000 rpm. Using an ABSciex API4000 mass spectrometer, processed samples were loaded onto the graphitic carbon SPE-column. The time for aspiration, load/wash, elution and re-equilibration time was 600, 1500, 3000 and 500 milliseconds, respectively. Peak areas were calculated using RapidFire Integrator software.
As to `COCC1(C(=O)N2CCC[C@@H](N(C)C(=O)NCc3cc4cc(Cl)ccc4[nH]3)C2)CC1` [Compound 92, (R)-3-((5-chloro-1H-indol-2-yl)methyl)-1-(1-(1-(methoxymethyl)cyclopropane-1-carbonyl)piperidin-3-yl)-1-methylurea], the IC50 is 8990 nM.

For `CN(C(=O)NCc1cc2cc(Cl)ccc2[nH]1)[C@@H]1CCCN(C(=O)c2ncnn2C)C1` [Compound 28, (R)-3-((5-chloro-1H-indol-2-yl)methyl)-1-methyl-1-(1-(1-methyl-1H-1,2,4-triazole-5-carbonyl)piperidin-3-yl)urea], the half-inhibitory concentration (IC50) was above 23400 nM.

On to `CC(=O)N1CCC[C@@H](N(C)C(=O)NCc2cc3[nH]ccc3cc2F)C1` [Compound 184, (R)-1-(1-acetylpiperidin-3-yl)-3-((5-fluoro-1H-indol-6-yl)methyl)-1-methylurea], for which the half-inhibitory concentration (IC50) was found to be 3970 nM.

Take `CN(C(=O)NCc1cc2cc(Cl)ccc2[nH]1)[C@@H]1CCCN(C(=O)CO)C1` [Compound 4, (R)-3-((5-chloro-1H-indol-2-yl)methyl)-1-(1-(2-hydroxyacetyl)piperidin-3-yl)-1-methylurea]: the concentration for half-maximal inhibition (IC50) was 620 nM.

For `CN(C(=O)NCc1cc2cc(Cl)ccc2[nH]1)[C@@H]1CCCN(C(=O)C23CC(C2)C3)C1` [Compound 123, (R)-1-(1-(bicyclo[1.1.1]pentane-1-carbonyl)piperidin-3-yl)-3-((5-chloro-1H-indol-2-yl)methyl)-1-methylurea], the IC50 turned out to be 427 nM.

For `Cc1n[nH]nc1C(=O)N1CCC[C@@H](N(C)C(=O)NCc2cc3cc(Cl)ccc3[nH]2)C1` [Compound 25, (R)-3-((5-chloro-1H-indol-2-yl)methyl)-1-methyl-1-(1-(5-methyl-2H-1,2,3-triazole-4-carbonyl)piperidin-3-yl)urea], the half-maximal inhibitory concentration (IC50) is 11600 nM.

As for `COc1ncc(C(=O)N2CCC[C@@H](N(C)C(=O)NCc3cc4cc(Cl)ccc4[nH]3)C2)cc1F` [Compound 87, (R)-3-((5-chloro-1H-indol-2-yl)methyl)-1-(1-(5-fluoro-6-methoxynicotinoyl)piperidin-3-yl)-1-methylurea], the IC50 is 1670 nM.

Turning to `COc1cc2[nH]c(CNC(=O)N(C)[C@@H]3CCCN(C(C)=O)C3)cc2cc1Cl` [Compound 153, (R)-1-(1-acetylpiperidin-3-yl)-3-((5-chloro-6-methoxy-1H-indol-2-yl)methyl)-1-methylurea], the concentration for half-maximal inhibition (IC50) came to 504 nM.

For `CC(=O)N1CCC[C@@H](N(C)C(=O)NCc2cc3cc(C)cc(CO)c3[nH]2)C1` [Compound 175, (R)-1-(1-acetylpiperidin-3-yl)-3-((7-(hydroxymethyl)-5-methyl-1H-indol-2-yl)methyl)-1-methylurea], the IC50 was 20900 nM.

As for `CN(C(=O)NCc1cc2cc(Cl)ccc2[nH]1)[C@@H]1CCCN(C(=O)c2nccs2)C1` [Compound 9, (R)-3-((5-chloro-1H-indol-2-yl)methyl)-1-methyl-1-(1-(thiazole-2-carbonyl)piperidin-3-yl)urea], the IC50 is 5370 nM.

On to `CC(=O)N1CCC[C@@H](N(C)C(=O)NCc2cc3cc(C)c(Cl)cc3[nH]2)C1` [Compound 157, (R)-1-(1-acetylpiperidin-3-yl)-3-((6-chloro-5-methyl-1H-indol-2-yl)methyl)-1-methylurea], for which the half-inhibitory concentration (IC50) came out at 194 nM.

`CN(C(=O)NCc1cc2cc(Cl)ccc2[nH]1)[C@@H]1CCCN(C(=O)C2CC2(F)F)C1` (stereo partly drawn) [Compound 19, 3-((5-chloro-1H-indol-2-yl)methyl)-1-((3R)-1-(2,2-difluorocyclopropane-1-carbonyl)piperidin-3-yl)-1-methylurea]: the half-maximal inhibitory concentration (IC50) was 484 nM.

In the case of `CN(C(=O)NCc1cc2cc(Cl)ccc2[nH]1)[C@@H]1CCCN(C(=O)CNC(=O)C(F)(F)F)C1` [Compound 56, (R)-N-(2-(3-(3-((5-chloro-1H-indol-2-yl)methyl)-1-methylureido)piperidin-1-yl)-2-oxoethyl)-2,2,2-trifluoroacetamide], the concentration for half-maximal inhibition (IC50) was found to be 2460 nM.

Regarding `CN(C(=O)NCc1cc2cc(Cl)ccc2[nH]1)[C@@H]1CCCN(c2ccon2)C1` [Compound 151, (R)-3-((5-chloro-1H-indol-2-yl)methyl)-1-(1-(isoxazol-3-yl)piperidin-3-yl)-1-methylurea], the IC50 stood at 40.4 nM.

Regarding `CN(C(=O)NCc1cc2cc(Cl)ccc2[nH]1)[C@@H]1CCCN(C(=O)c2ccn(C(F)F)n2)C1` [Compound 39, (R)-3-((5-chloro-1H-indol-2-yl)methyl)-1-(1-(1-(difluoromethyl)-1H-pyrazole-3-carbonyl)piperidin-3-yl)-1-methylurea], the 50% inhibitory concentration (IC50) was determined as 231 nM.

As to `CN(C(=O)NCc1cc2cc(Cl)ccc2[nH]1)[C@@H]1CCCN(C(=O)C2CC2)C1` [Compound 17, (R)-3-((5-chloro-1H-indol-2-yl)methyl)-1-(1-(cyclopropanecarbonyl)piperidin-3-yl)-1-methylurea], the IC50 is 151 nM.

With `CC(=O)N1CCC[C@@H](N(C)C(=O)NCc2cc3cc(Cl)cc(O)c3[nH]2)C1` [Compound 231, (R)-1-(1-acetylpiperidin-3-yl)-3-((5-chloro-7-hydroxy-1H-indol-2-yl)methyl)-1-methylurea], the IC50 came to 1060 nM.

With `CN(C(=O)NCc1cc2cc(Cl)ccc2[nH]1)[C@@H]1CCCN(C(=O)Cc2cccnc2)C1` [Compound 67, (R)-3-((5-chloro-1H-indol-2-yl)methyl)-1-methyl-1-(1-(2-(pyridin-3-yl)acetyl)piperidin-3-yl)urea], the IC50 stood at 887 nM.

`CN(C(=O)NCc1cc2cc(Cl)ccc2[nH]1)[C@@H]1CCCN(C(=O)c2ccncc2)C1` [Compound 34, (R)-3-((5-chloro-1H-indol-2-yl)methyl)-1-(1-isonicotinoylpiperidin-3-yl)-1-methylurea]: the IC50 was found to be 1400 nM.

On to `CC(=O)N1CCC[C@@H](N(C)C(=O)NCc2cc3ccc(OCc4cc(C)on4)cc3[nH]2)C1` [Compound 143, (R)-1-(1-acetylpiperidin-3-yl)-1-methyl-3-((6-((5-methylisoxazol-3-yl)methoxy)-1H-indol-2-yl)methyl)urea], for which the IC50 worked out at 1090 nM.

Turning to `CN(C(=O)NCc1cc2cc(Cl)ccc2[nH]1)[C@@H]1CCCN(C(=O)Cc2cnn(C)c2)C1` [Compound 86, (R)-3-((5-chloro-1H-indol-2-yl)methyl)-1-methyl-1-(1-(2-(1-methyl-1H-pyrazol-4-yl)acetyl)piperidin-3-yl)urea], the concentration for half-maximal inhibition (IC50) is 559 nM.

On to `CN(C(=O)NCc1cc2ccccc2[nH]1)[C@@H]1CCCN(c2ccon2)C1` [Compound 150, (R)-3-((1H-indol-2-yl)methyl)-1-(1-(isoxazol-3-yl)piperidin-3-yl)-1-methylurea], for which the IC50 stood at 91.9 nM.

For the compound `COCc1oncc1C(=O)N1CCC[C@@H](N(C)C(=O)NCc2cc3cc(Cl)ccc3[nH]2)C1` [Compound 90, (R)-3-((5-chloro-1H-indol-2-yl)methyl)-1-(1-(5-(methoxymethyl)isoxazole-4-carbonyl)piperidin-3-yl)-1-methylurea], the IC50 turned out to be 13500 nM.

With `CC(=O)N1CCC[C@@H](N(C)C(=O)NCc2cc3ccccc3[nH]2)C1` [Compound 148, (R)-3-((1H-indol-2-yl)methyl)-1-(1-acetylpiperidin-3-yl)-1-methylurea], the IC50 was 1080 nM.

The values above are taken from US20260184693A1, “INHIBITORS OF SOLUTE CARRIER FAMILY 6A MEMBER 19 (SLC6A19) AND METHODS OF USE THEREOF” (Maze Therapeutics, Inc., priority 2022, published 2026).
